Data reported in ChEMBL document CHEMBL3351504, “Discovery and structure-based optimization of adenain inhibitors” (ACS Med Chem Lett, 2014).
Values after ≈ are worked out from the molar mass of the structure shown.

Legend:
[1] = Permeability from basolateral to apical side in human Caco2 cells; type: ADME, cell-based; conditions: Caco-2, read-out: permeability
[2] = Inhibition of human adenovirus serotype 5 adenain protease expressed in Escherichia coli […] (DE3) using Ac-WLRGG*ARC(PT14)-NH2 as substrate by FLT assay; design: species or system Human adenovirus 5
[3] = Inhibition of adenovirus adenain; design: species or system unidentified adenovirus
[4] = Permeability from apical to basolateral side in human Caco2 cells; type: ADME, cell-based; conditions: Caco-2, read-out: permeability
[5] = High throughput equilibrium solubility at pH 6.8; type: physicochemical; conditions: buffer
[6] = Inhibition of human adenovirus serotype 8 adenain protease expressed in Escherichia coli […] (DE3) using Ac-WLRGG*ARC(PT14)-NH2 as substrate by FLT assay; design: species or system Human adenovirus 8
[7] = test system: Human adenovirus 5; assay: Antiviral activity against human adenovirus 5 infected in HEK293 cells assessed as reduction in viral induced cytopathogenicity incubated for 5 days by Celltiter-Glo luminescent cell viability assay; type: functional, organism-based; conditions: Human mastadenovirus C, HEK293, 120 h

Compound | Papp B→A [1] [×10⁻⁶ cm/s] | IC50 [2] [µM] | IC50 [3] [µM] | Papp A→B [4] [×10⁻⁶ cm/s] | solubility thermodynamic [5] [µM] | IC50 [6] [µM] | EC50 [7] [µM]
CS(=O)(=O)N[C@H](C(=O)N[C@@H](Cc1ccccc1)C(=O)NCC(=O)NCC#N)c1cccc(Cl)c1 | 7.5 | 0.03 | 0.04 | 1.2 | 170 (≈ 86 µg/mL) | 0.04 | –
C[C@@H](O)[C@H](NC(=O)Cc1cc(Cl)cc(Cl)c1)C(=O)NCC(=O)NCC#N | – | 0.03 | – | – | 121 (≈ 48.6 µg/mL) | 0.08 | –
CC[C@H](C)[C@H](NC(=O)C(c1cc(Cl)cc(Cl)c1)N(C)C)C(=O)NCc1ccnc(C#N)n1 (mixture of isomers) | 10.1 | 0.02 | – | 17.8 | 61 | 0.06 | 6.7
CC(C)(C)[C@H](NC(=O)Cc1cc(Cl)cc(Cl)c1)C(=O)NCC(=O)NCC#N | 23.8 | 0.04 | – | 5.4 | 85 (≈ 35.1 µg/mL) | 0.08 | –
CC[C@H](C)[C@H](NC(=O)[C@@H](O)c1cc(Cl)cc(Cl)c1)C(=O)NCC(=O)NCC#N | 28 | 0.05 | – | 3 | – | 0.05 | –
N#CCNC(=O)CNC(=O)[C@H](Cc1ccccc1)NC(=O)[C@@H](O)c1cccc(Cl)c1 | 3.2 | – | – | 2.2 | – | 0.07 | –
N#CCNC(=O)CNC(=O)[C@H](Cc1ccccc1)NC(=O)Cc1cccc(Cl)c1 | 7.4 | 0.28 | – | 1.2 | 150 (≈ 61.9 µg/mL) | 0.38 | –
CC[C@H](C)[C@H](NC(=O)[C@@H](O)c1cc(Cl)cc(Cl)c1)C(=O)NCc1ccnc(C#N)n1 | 11.3 | 0.008 | – | 18.3 | 236 (≈ 106 µg/mL) | 0.02 | 7.2
CC[C@H](C(=O)N[C@H](C(=O)NCC(=O)NCC#N)[C@@H](C)O)c1cc(Cl)cc(Cl)c1 | 18 | 0.005 | – | 2.6 | 1000 (≈ 429 µg/mL) | 0.03 | –
N#CCNC(=O)CNC(=O)[C@H](Cc1ccccc1)NC(=O)Cc1cc(Cl)cc(Cl)c1 | 8.1 | 0.04 | – | 1.2 | 30 (≈ 13.4 µg/mL) | 0.07 | –
CC[C@H](C(=O)N[C@H](C(=O)NCC(=O)NCC#N)C(C)(C)C)c1cc(Cl)cc(Cl)c1 | 12.2 | 0.01 | – | 7.3 | 5 (≈ 2.21 µg/mL) | 0.02 | 2.5
C[C@@H](O)[C@H](NC(=O)Cc1cc(Cl)cc(Cl)c1)C(=O)NCc1ccnc(C#N)n1 | 14.1 | 0.002 | – | 12.2 | 556 (≈ 235 µg/mL) | 0.003 | 1.2
N#CCNC(=O)CNC(=O)[C@H](CN)NC(=O)Cc1cc(Cl)cc(Cl)c1 | 1.2 | 0.04 | – | 1 | 891 (≈ 344 µg/mL) | 0.08 | –
N#Cc1ncc(C(=O)NCc2ccccc2)cn1 | – | – | 24 | – | – | – | –
CC(C(=O)N[C@@H](Cc1ccccc1)C(=O)NCC(=O)NCC#N)c1cc(Cl)cc(Cl)c1 (mixture of isomers) | – | 0.006 | – | – | 50 | 0.03 | –
N#CCNC(=O)CNC(=O)C(Cc1ccccn1)NC(=O)Cc1cc(Cl)cc(Cl)c1 (racemic) | 15 | 0.14 | – | 0.7 | 111 (≈ 49.8 µg/mL) | 0.36 | –
COC[C@H](NC(=O)Cc1cc(Cl)cc(Cl)c1)C(=O)NCc1ccnc(C#N)n1 | 14.8 | 0.002 | – | 23.2 | 52 (≈ 22 µg/mL) | 0.004 | 3.2
